{"source": "patent US12054449B2", "about": "“Phenylcarbamate crystalline form and method for manufacturing the same” (BIO-PHARM SOLUTIONS CO., LTD., priority 2021, dated 2024)", "key": {"[1]": {"experiment": "Change of crystalline form on standing or drying (XRPD)", "format": "physicochemical", "details": "left overnight on the XRPD disc under laboratory conditions", "method": "XRPD patterns were detected by CuKα irradiation (30 kV, 10 mA) using a Bruker AXS D2 diffractometer. The analysis was performed using θ-θ geometry and a LynxEye detector at 5 to 42° 2θ with a step size of 0.024° 2θ at 0.1 sec/step.\nSamples were run at ambient conditions and prepared as flat specimens using powder received without grinding. About 1 to 2 mg of the sample was lightly pressed on a silicon wafer to obtain a flat surface."}, "[2]": {"experiment": "Polymorphic screening with solvents and solvent/antisolvent", "format": "physicochemical"}}, "data": [{"smiles": "C[C@H](OC(N)=O)[C@@H](O)c1ccccc1Cl", "note": "[ED01748-006-001-00, 1-(2-chlorophenyl)-(S)-1-hydroxypropyl-(S)-2-carbamate]", "values": [{"measurement": "Form by XRPD after being left overnight", "setting": "[1]", "result": "Pattern 3"}, {"measurement": "Result", "setting": "[2]; Exp. 1, 2-propanol 60 ul / Toluene 100 ul, Shaken RT, refrigerated", "result": "Soluble"}, {"measurement": "Initial result", "setting": "[2]; Exp. 1, solvent 2-propanol 60 ul, anti-solvent Toluene 100 ul", "result": "Soluble"}, {"measurement": "Result", "setting": "[2]; Exp. 2, 2-propanol 60 ul / Heptane 200 ul, Shaken RT, refrigerated", "result": "Soluble"}, {"measurement": "Initial result", "setting": "[2]; Exp. 2, solvent 2-propanol 60 ul, anti-solvent Heptane 200 ul", "result": "Soluble"}, {"measurement": "Result", "setting": "[2]; Exp. 3, 2-propanol 60 ul / Diethyl ether 100 ul, Shaken RT, refrigerated", "result": "Soluble"}, {"measurement": "Initial result", "setting": "[2]; Exp. 3, solvent 2-propanol 60 ul, anti-solvent Diethyl ether 100 ul", "result": "Soluble"}, {"measurement": "Result", "setting": "[2]; Exp. 4, 2-propanol 60 ul / TBME 200 ul, Shaken RT, refrigerated", "result": "Soluble"}, {"measurement": "Initial result", "setting": "[2]; Exp. 4, solvent 2-propanol 60 ul, anti-solvent TBME 200 ul", "result": "Soluble"}, {"measurement": "Result", "setting": "[2]; Exp. 5, acetone 60 ul / Toluene 100 ul, Shaken RT, refrigerated", "result": "Soluble"}, {"measurement": "Initial result", "setting": "[2]; Exp. 5, solvent acetone 60 ul, anti-solvent Toluene 100 ul", "result": "Soluble"}, {"measurement": "Result", "setting": "[2]; Exp. 6, acetone 60 ul / Heptane 175 ul, notes: oil", "result": "oil"}, {"measurement": "Initial result", "setting": "[2]; Exp. 6, solvent acetone 60 ul, anti-solvent Heptane 175 ul", "result": "Cloudy"}, {"measurement": "Result", "setting": "[2]; Exp. 7, acetone 60 ul / Diethyl ether 100 ul, Shaken RT, refrigerated", "result": "Soluble"}, {"measurement": "Initial result", "setting": "[2]; Exp. 7, solvent acetone 60 ul, anti-solvent Diethyl ether 100 ul", "result": "Soluble"}, {"measurement": "Result", "setting": "[2]; Exp. 8, acetone 60 ul / TBME 100 ul, Shaken RT, refrigerated", "result": "Soluble"}, {"measurement": "Initial result", "setting": "[2]; Exp. 8, solvent acetone 60 ul, anti-solvent TBME 100 ul", "result": "Soluble"}, {"measurement": "Result: crystalline form obtained (XRPD)", "setting": "[2]; Exp. 9, chloroform 60 ul / Toluene 100 ul", "result": "Pattern 9"}, {"measurement": "Result", "setting": "[2]; Exp. 9, chloroform 60 ul / Toluene 100 ul, Shaken RT, solid XRPD", "result": "Crystalline"}, {"measurement": "Initial result", "setting": "[2]; Exp. 9, solvent chloroform 60 ul, anti-solvent Toluene 100 ul", "result": "Precipitate"}, {"measurement": "Result: crystalline form obtained (XRPD)", "setting": "[2]; Exp. 10, chloroform 60 ul / Heptane 25 ul", "result": "Pattern 8"}, {"measurement": "Result", "setting": "[2]; Exp. 10, chloroform 60 ul / Heptane 25 ul, Shaken RT, solid XRPD", "result": "Crystalline"}, {"measurement": "Initial result", "setting": "[2]; Exp. 10, solvent chloroform 60 ul, anti-solvent Heptane 25 ul", "result": "Precipitate"}, {"measurement": "Result", "setting": "[2]; Exp. 11, chloroform 60 ul / Diethyl ether 100 ul, Shaken RT, refrigerated", "result": "Soluble"}, {"measurement": "Initial result", "setting": "[2]; Exp. 11, solvent chloroform 60 ul, anti-solvent Diethyl ether 100 ul", "result": "Soluble"}, {"measurement": "Result", "setting": "[2]; Exp. 12, chloroform 60 ul / TBME 100 ul, Shaken RT, refrigerated", "result": "Soluble"}, {"measurement": "Initial result", "setting": "[2]; Exp. 12, solvent chloroform 60 ul, anti-solvent TBME 100 ul", "result": "Soluble"}, {"measurement": "Result: crystalline form obtained (XRPD)", "setting": "[2]; Exp. 13, DCM 80 ul / Toluene 100 ul", "result": "Pattern 9"}, {"measurement": "Result", "setting": "[2]; Exp. 13, DCM 80 ul / Toluene 100 ul, Shaken RT, solid XRPD", "result": "Crystalline"}, {"measurement": "Initial result", "setting": "[2]; Exp. 13, solvent DCM 80 ul, anti-solvent Toluene 100 ul", "result": "Precipitate"}, {"measurement": "Result", "setting": "[2]; Exp. 14 (second line so numbered), DCM 80 ul / Diethyl ether 100 ul, Shaken RT, refrigerated", "result": "Soluble"}, {"measurement": "Initial result", "setting": "[2]; Exp. 14 (second line so numbered), solvent DCM 80 ul, anti-solvent Diethyl ether 100 ul", "result": "Soluble"}, {"measurement": "Result: crystalline form obtained (XRPD)", "setting": "[2]; Exp. 14, DCM 80 ul / Heptane 50 ul", "result": "Pattern 8"}, {"measurement": "Result", "setting": "[2]; Exp. 14, DCM 80 ul / Heptane 50 ul, Shaken RT, solid XRPD", "result": "Crystalline"}, {"measurement": "Initial result", "setting": "[2]; Exp. 14, solvent DCM 80 ul, anti-solvent Heptane 50 ul", "result": "Precipitate"}, {"measurement": "Result", "setting": "[2]; Exp. 16, DCM 80 ul / TBME 100 ul, Shaken RT, refrigerated", "result": "Soluble"}, {"measurement": "Initial result", "setting": "[2]; Exp. 16, solvent DCM 80 ul, anti-solvent TBME 100 ul", "result": "Soluble"}, {"measurement": "Result: crystalline form obtained (XRPD)", "setting": "[2]; Exp. 18, ethyl acetate 60 ul / Heptane 100 ul", "result": "Pattern 11"}, {"measurement": "Result", "setting": "[2]; Exp. 18, ethyl acetate 60 ul / Heptane 100 ul, Oil, then solid formed", "result": "Crystalline"}, {"measurement": "Initial result", "setting": "[2]; Exp. 18, solvent ethyl acetate 60 ul, anti-solvent Heptane 100 ul", "result": "Cloudy"}, {"measurement": "Result", "setting": "[2]; Exp. 19, ethyl acetate 60 ul / Diethyl ether 100 ul, Shaken RT, refrigerated", "result": "Soluble"}, {"measurement": "Initial result", "setting": "[2]; Exp. 19, solvent ethyl acetate 60 ul, anti-solvent Diethyl ether 100 ul", "result": "Soluble"}, {"measurement": "Result", "setting": "[2]; Exp. 20, ethyl acetate 60 ul / TBME 100 ul, Shaken RT, refrigerated", "result": "Soluble"}, {"measurement": "Initial result", "setting": "[2]; Exp. 20, solvent ethyl acetate 60 ul, anti-solvent TBME 100 ul", "result": "Soluble"}, {"measurement": "Result", "setting": "[2]; Exp. 21, ethyl acetate 60 ul / Pentane 225 ul, notes: Oil", "result": "Oil"}, {"measurement": "Initial result", "setting": "[2]; Exp. 21, solvent ethyl acetate 60 ul, anti-solvent Pentane 225 ul", "result": "Cloudy"}, {"measurement": "Result", "setting": "[2]; Exp. 22, ethyl acetate 60 ul / cyclohexane 350 ul, Shaken RT, solid XRPD", "result": "Crystalline,"}, {"measurement": "Initial result", "setting": "[2]; Exp. 22, solvent ethyl acetate 60 ul, anti-solvent cyclohexane 350 ul", "result": "Precipitate"}, {"measurement": "Result", "setting": "[2]; Exp. 23, ethyl acetate 60 ul / methylcyclohexane 325 ul, Shaken RT, solid XRPD", "result": "Crystalline,"}, {"measurement": "Initial result", "setting": "[2]; Exp. 23, solvent ethyl acetate 60 ul, anti-solvent methylcyclohexane 325 ul", "result": "Precipitate"}, {"measurement": "Result", "setting": "[2]; Exp. 24, chloroform 60 ul / Pentane 75 ul, Shaken RT, solid XRPD", "result": "Crystalline"}, {"measurement": "Initial result", "setting": "[2]; Exp. 24, solvent chloroform 60 ul, anti-solvent Pentane 75 ul", "result": "Precipitate"}, {"measurement": "Result", "setting": "[2]; Exp. 25, chloroform 60 ul / cyclohexane 125 ul, Shaken RT, solid XRPD", "result": "Crystalline"}, {"measurement": "Initial result", "setting": "[2]; Exp. 25, solvent chloroform 60 ul, anti-solvent cyclohexane 125 ul", "result": "Precipitate"}, {"measurement": "Result", "setting": "[2]; Exp. 26, chloroform 60 ul / methylcyclohexane 75 ul, Shaken RT, solid XRPD", "result": "Crystalline"}, {"measurement": "Initial result", "setting": "[2]; Exp. 26, solvent chloroform 60 ul, anti-solvent methylcyclohexane 75 ul", "result": "Precipitate"}, {"measurement": "Result", "setting": "[2]; Exp. 27, DCM 80 ul / Pentane 100 ul, Shaken RT, solid XRPD", "result": "Crystalline"}, {"measurement": "Initial result", "setting": "[2]; Exp. 27, solvent DCM 80 ul, anti-solvent Pentane 100 ul", "result": "Precipitate"}, {"measurement": "Result", "setting": "[2]; Exp. 28, DCM 80 ul / cyclohexane 50 ul, Shaken RT, solid XRPD", "result": "Crystalline"}, {"measurement": "Initial result", "setting": "[2]; Exp. 28, solvent DCM 80 ul, anti-solvent cyclohexane 50 ul", "result": "Precipitate"}, {"measurement": "Result", "setting": "[2]; Exp. 29, DCM 80 ul / methylcyclohexane 50 ul, Shaken RT, solid XRPD", "result": "Crystalline"}, {"measurement": "Initial result", "setting": "[2]; Exp. 29, solvent DCM 80 ul, anti-solvent methylcyclohexane 50 ul", "result": "Precipitate"}, {"measurement": "Result", "setting": "[2]; Exp. number not given, ethyl acetate 60 ul / Toluene 100 ul, Shaken RT, refrigerated", "result": "Soluble"}, {"measurement": "Initial result", "setting": "[2]; Exp. number not given, solvent ethyl acetate 60 ul, anti-solvent Toluene 100 ul", "result": "Soluble"}]}]}
